Test results: the Kinase Knowledgebase extract (Sharma et al. 2016)
In brackets after ≈: the same amount, converted by molar mass. Several values for one entry are separate records, joined by “and”; a condition that tells them apart may be missing. Equal values may be shown once. One block for each compound: values may come before it.

Assays:
[1] = molecular target: EGFR (human) (UniProt P00533); settings: lncap
[2] = molecular target: EGFR (human) (UniProt P00533); settings: sw948
[3] = molecular target: EGFR (human) (UniProt P00533); settings: cx-1 colon
[4] = molecular target: EGFR (human) (UniProt P00533); settings: pc-3
[5] = molecular target: EGFR (human) (UniProt P00533); settings: ccrf-cem leukemia cell
[6] = molecular target: EGFR (human) (UniProt P00533); settings: lx1
[7] = molecular target: EGFR (human) (UniProt P00533); settings: hct-15
[8] = molecular target: EGFR (human) (UniProt P00533); settings: ccl228
[9] = molecular target: EGFR (human) (UniProt P00533); settings: nfc
[10] = molecular target: EGFR (human) (UniProt P00533); settings: a549
[11] = molecular target: EGFR (UniProt P00533)
Sequence of EGFR (P00533 whole entry, looked up): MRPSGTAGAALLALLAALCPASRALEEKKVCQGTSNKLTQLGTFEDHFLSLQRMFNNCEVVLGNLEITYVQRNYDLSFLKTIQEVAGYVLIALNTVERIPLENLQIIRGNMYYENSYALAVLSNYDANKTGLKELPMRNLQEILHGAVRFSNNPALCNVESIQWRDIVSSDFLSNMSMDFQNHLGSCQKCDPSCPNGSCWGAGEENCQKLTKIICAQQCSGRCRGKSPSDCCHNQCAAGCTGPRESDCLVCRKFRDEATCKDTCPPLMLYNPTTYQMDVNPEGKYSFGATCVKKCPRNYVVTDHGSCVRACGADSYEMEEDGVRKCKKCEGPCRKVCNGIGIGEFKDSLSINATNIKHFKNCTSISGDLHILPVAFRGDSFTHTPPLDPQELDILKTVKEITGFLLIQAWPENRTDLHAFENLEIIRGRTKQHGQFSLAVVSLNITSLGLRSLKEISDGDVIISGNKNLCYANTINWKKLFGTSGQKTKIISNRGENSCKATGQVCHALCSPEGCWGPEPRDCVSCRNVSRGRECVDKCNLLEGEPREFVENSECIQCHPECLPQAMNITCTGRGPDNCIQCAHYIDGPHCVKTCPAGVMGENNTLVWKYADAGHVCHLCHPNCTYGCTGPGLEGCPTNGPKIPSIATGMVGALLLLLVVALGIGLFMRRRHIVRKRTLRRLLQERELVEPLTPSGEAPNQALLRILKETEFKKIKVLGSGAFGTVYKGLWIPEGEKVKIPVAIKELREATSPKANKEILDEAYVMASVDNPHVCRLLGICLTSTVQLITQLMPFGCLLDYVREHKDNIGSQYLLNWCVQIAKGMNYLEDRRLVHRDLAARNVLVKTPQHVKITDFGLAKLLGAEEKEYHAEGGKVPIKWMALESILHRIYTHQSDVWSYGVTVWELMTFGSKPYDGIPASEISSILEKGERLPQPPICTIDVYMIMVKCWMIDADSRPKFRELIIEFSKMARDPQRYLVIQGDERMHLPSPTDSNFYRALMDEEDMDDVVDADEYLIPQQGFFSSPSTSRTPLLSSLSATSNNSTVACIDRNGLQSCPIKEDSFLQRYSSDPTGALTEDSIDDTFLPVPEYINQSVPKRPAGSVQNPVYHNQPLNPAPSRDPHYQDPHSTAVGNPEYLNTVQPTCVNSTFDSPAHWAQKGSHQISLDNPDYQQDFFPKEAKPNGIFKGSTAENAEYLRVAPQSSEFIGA

[12] = molecular target: EGFR (human) (UniProt P00533); settings: a431
[13] = molecular target: EGFR (human) (UniProt P00533); settings: colo-205
[14] = molecular target: EGFR (human) (UniProt P00533); settings: mip
[15] = molecular target: EGFR (human) (UniProt P00533); settings: hl-60
[16] = molecular target: EGFR (human) (UniProt P00533); settings: t-47d
[17] = molecular target: EGFR (human) (UniProt P00533); settings: ls174t
[18] = molecular target: EGFR (human) (UniProt P00533); settings: b7474
[19] = molecular target: EGFR (human) (UniProt P00533); settings: htb161
[20] = molecular target: EGFR (human) (UniProt P00533); settings: nhek
[21] = molecular target: EGFR (human) (UniProt P00533); settings: a2780s
[22] = molecular target: EGFR (UniProt P00533); remark: listed apart in the source
[23] = molecular target: EGFR (human) (UniProt P00533); settings: caco2
[24] = molecular target: EGFR (human) (UniProt P00533); settings: du145
[25] = molecular target: EGFR (human) (UniProt P00533); settings: a2780ddp

Sequence of EGFR (human) (P00533 whole entry, looked up): as above

SMILES: COc1cc2ncc(C#N)c(Nc3cccc(SC)c3)c2cc1OC
IC50 [11]: 10 nM | IC50 [12]: 14.3 µg/mL and 6.95 µg/mL

SMILES: CCN1CCN(CC#CC(=O)Nc2ccc3ncc(C#N)c(Nc4cccc(Br)c4)c3c2)CC1
IC50 [12]: 800 nM

SMILES: COc1cc2ncc(C#N)c(Nc3cccc(C#N)c3)c2cc1OC
IC50 [2]: > 100 µg/mL | IC50 [13]: > 100 µg/mL | IC50 [14]: > 100 µg/mL | IC50 [5]: > 100 µg/mL | IC50 [6]: 100 µg/mL (≈ 303 µM) | IC50 [15]: > 1 µg/mL | IC50 [8]: > 100 µg/mL | IC50 [10]: 100 µg/mL (≈ 303 µM)

SMILES: COc1cc2ncc(C#N)c(Nc3cccc(Br)c3)c2cc1NC(=O)C#CCN(C)C
IC50 [11]: 0.008 nM

SMILES: COc1cc2ncc(C#N)c(Nc3ccc(F)cc3)c2cc1OC
IC50 [2]: > 100 µg/mL | IC50 [4]: > 100 µg/mL | IC50 [16]: > 100 µg/mL

SMILES: COc1cc2ncc(C#N)c(Nc3cccc(Cl)c3)c2cc1OC
IC50 [12]: 240 nM and 0.71 µg/mL

SMILES: CC(=O)Nc1cc(CN(C)C)c2ncc(C#N)c(Nc3cccc(Br)c3)c2c1
IC50 [12]: > 5 µg/mL

SMILES: COc1cc2ncc(C#N)c(Oc3cccc(Br)c3)c2cc1OC
IC50 [17]: > 100 µg/mL | IC50 [2]: > 100 µg/mL | IC50 [4]: > 100 µg/mL | IC50 [12]: 100 µg/mL | IC50 [14]: > 100 µg/mL | IC50 [5]: > 100 µg/mL | IC50 [6]: > 100 µg/mL | IC50 [10]: > 100 µg/mL

The next lines start with the values.

IC50 [1]: > 100 µg/mL | IC50 [2]: > 100 µg/mL | IC50 [3]: > 100 µg/mL | IC50 [4]: > 100 µg/mL | IC50 [5]: > 100 µg/mL | IC50 [6]: > 100 µg/mL | IC50 [7]: 100 µg/mL (≈ 271 µM) | IC50 [8]: > 100 µg/mL | IC50 [9]: > 100 µg/mL | IC50 [10]: > 100 µg/mL
SMILES: N#Cc1cnc2ccc([N+](=O)[O-])cc2c1Nc1cccc(Br)c1

IC50 [11]: 80 nM | IC50 [12]: 0.8 µg/mL
SMILES: COC/C=C/C(=O)Nc1ccc2ncc(C#N)c(Nc3cccc(Br)c3)c2c1

IC50 [12]: > 10 µg/mL
SMILES: CNC/C=C/C(=O)Nc1ccc2ncc(C#N)c(Nc3cccc(Br)c3)c2c1

IC50 [17]: > 33 µg/mL and 87 µg/mL | IC50 [1]: > 33 µg/mL and 90 µg/mL | IC50 [2]: > 100 µg/mL | IC50 [3]: 81.9 µg/mL (≈ 202 µM) | IC50 [4]: > 100 µg/mL | IC50 [13]: > 100 µg/mL | IC50 [18]: > 33 µg/mL and 95.7 µg/mL | IC50 [12]: 38.1 µg/mL | IC50 [14]: 100 µg/mL (≈ 247 µM) | IC50 [5]: > 100 µg/mL | IC50 [19]: 7.89 µg/mL (≈ 19.5 µM) | IC50 [20]: 9000 nM | IC50 [6]: > 100 µg/mL | IC50 [21]: 9.8 µg/mL (≈ 24.2 µM) | IC50 [22]: 9000 nM | IC50 [15]: > 100 µg/mL | IC50 [7]: > 33 µg/mL and 98.9 µg/mL | IC50 [16]: > 100 µg/mL | IC50 [8]: > 100 µg/mL | IC50 [9]: > 100 µg/mL | IC50 [10]: > 100 µg/mL | IC50 [23]: 5.63 µg/mL (≈ 13.9 µM) | IC50 [24]: 7.81 µg/mL (≈ 19.3 µM) | IC50 [25]: 60.4 µg/mL (≈ 149 µM)
SMILES: CC#CC(=O)Nc1ccc2ncc(C#N)c(Nc3cccc(Br)c3)c2c1

IC50 [12]: 300 nM
SMILES: COc1cc2ncc(C#N)c(Nc3cccc(Br)c3)c2cc1OC

IC50 [2]: > 100 µg/mL | IC50 [13]: > 100 µg/mL
SMILES: N#Cc1cnc2ccc(N)cc2c1Nc1cccc(Br)c1
